Key:
[1] = test system: thymidylate monophosphate, diphosphate and triphosphate levels of Ehrlich ascites cells; test: In vivo thymidine incorporation into nucleotide pools; parameters: species or system mouse
Description: (§1) CF1 male mice (~30 g) were implanted with 2×10^6 Ehrlich ascites tumor cells, intraperitoneally on Day 0. Compound I was suspended by homogenation in 0.05% polysorbate.80-water and administered intraperitoneally at 10 and 20 mg/kg for 9 days to determine its effectiveness for inhibition of tumor growth. Mice were sacrificed on Day 10, and the ascites fluid was collected from the peritoneal cavity. The volume and ascrit (packed cell volume) were determined for each animal and the percent inhibition of tumor growth was calculated. For the metabolic studies, mice were treated on Days 8 and 9 with 10 mg/kg of Compound I, intraperitoneally. The animal was sacrificed on Day 10 and the ascites fluid harvested. The in vitro metabolic studies were performed at 0.25, 0.50 and 1 mmol final concentration of Compound I.
Deoxythymidine as well as deoxythymidylate monophosphate and diphosphate kinase activities were measured spectrophotometrically at 340 nm at 30 min using reduced nicotinamide adenine dinucleotide (0.1 μmole). Thymidine incorporation (6-^3 H - 21.5 Ci/mmol) into nucleotides was measured using the medium of Maley and Ochoa [J. Biol. Chem., 223, 1538 (1958)]. The reaction medium was extracted with ether and the aqueous layer plated on PEI cellulose F plates and eluted with 0.5N formic acid: 0.6M LiCl (1:1). Areas which correlated with Rf values of thymidine, thymidylate monophosphate, diphosphate and triphosphate standards were scraped and counted.

[2] = test system: deoxyribonucleic acid polymerase; test: In vivo nuclear deoxyribonucleic acid polymerase activity; parameters: species or system mouse
Description: as §1
In vitro and in vivo nuclear deoxyribonucleic acid polymerase activity was determined on isolated Ehrlich ascites cell nuclei. The incubation was that described by Sawada et al [Can. Res., 34, 3341 (1974)] except that [methyl-^3 H] deoxythymidine triphosphate (82.4 Ci/mmol) was used. The acid insoluble nucleic acid was collected on GF/F filters and counted. Nuclear ribonucleic acid polymerase activities were determined on enzymes isolated from nuclei. […] The acid insoluble ribonucleic acid was collected on nitrocellulose filters and counted.

[3] = test system: deoxyribonucleic acid synthesis of Ehrlich ascites cells; test: In vitro whole cell incorporation: deoxyribonucleic acid synthesis; type: cell-based, mouse; conditions: preliminary, 60 min, read-out: ID50, inhibition of deoxyribonucleic acid synthesis
Description: as §1
In vitro incorporation of ^3 H-thymidine, ^3 H-uridine, or ^3 H-leucine was determined using 10^6 Ehrlich ascites cells, 1 μCi labeled precursor, minimum essential medium and varying final concentrations of drug from 0.25-1.0 mM. The tubes were incubated at 37° C. for 60 min and inactivated by trichloroacetic acid. The acid insoluble labeled deoxyribonucleic acid was collected on GF/F glass filter discs and ribonucleic acid and protein were precipitated on nitrocellulose filters by vacuum suction. Results are expressed as dpm of incorporated precursor per hour per 10^6 cells.

[4] = test system: formate incorporation into purine; test: In vitro formate incorporation into purine (supernatant fraction); type: biochemical, mouse; conditions: read-out: ID50, formate incorporation into purine
Description: as §1, with “The animal was sacrificed on Day 10 and the ascites fluid harvested. The in vitro metabolic studies were performed at 0.25, 0.50 and 1 mmol final concentration of Compound I.” left out
Carbamyl phosphate synthetase activity was determined using the reaction medium of Kalman et al [Am. […] Citrulline formed from ornithine was measured at 490 nm by the method of Archibald [J. Biol. Chem., 156, 121 (1944)]. […] The ^14 CO2 generated in 15 min was trapped in 1M KOH and counted. Thymidylate synthetase activity was determined using a post-mitochondrial supernatant (9000 g×10 min) and 5 μCi of 5-^3 H-deoxyuridine monophosphate (14 Ci/mmol) according to the method of Kampf et al [ J. Med. Chem., 19, 903 (1976)]. ^14 C-Formate incorporation into purines was determined by the method of Spassova et al [Biochem. Pharmacol., 25, 923 (1976)] using 0.5 μCi of ^14 C-formic acid (52.0 mCi/mmol). […] The Rf value for xanthine monophosphate was scraped and counted. […]

[5] = 10 mg/kg/day I.P. on Days 8 and 9

In the case of “{Cu[(CH3)3 N.BH2 CO2 ]2.(CH3)3 N.BH2 COOH} [Compound I]”, the “3H-Thymidine incorporation into thymidylate monophosphate pool reduced” value [1] is reported as 57%, the TDP pool reduced [1] is reported as 19% and the TTP pool reduced [1] is reported as 10%. The Thymidylate diphosphate levels [1, 5] was 89 ± 11 % Control, the Thymidylate monophosphate levels [1, 5] was 43 ± 6 % Control and the Thymidylate triphosphate levels [1, 5] was 90 ± 10 % Control. For the same substance, the “Nuclear deoxyribonucleic acid polymerase activity reduced” value [2] was 62%, the “Deoxyribonucleic acid polymerase activity” value [2, 5] was 38 ± 5 % Control and the IC50 [3] was 940 µM. For the same substance, the IC50 [4] was 1710 µM.

Reference: patent publication US4550186A, “Binuclear copper (II) carboxylates formed from amine-carboxyboranes” (Duke University, priority 1983, dated 1985)
